Measured values as given in ChEMBL document CHEMBL1201862, “PubChem BioAssay data set” (2004).
The source made the active and inactive calls. Cut-off read from the data, not from the text of the source, for most assays here: actives have a measured EC50 and inactives only a lower limit.

Experiments:
[1] = C. albicans growth with fluconazole, confirmation, fluorescence, retest (AID 2467); type: functional, cell-based
[2] = NIH-3T3 fibroblast cytotoxicity, dose response, cytotoxicity control, cell-based, fluorescence, Alamar Blue, secondary assay (AID 2327); type: functional;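 note: NIH-3T3 mouse fibroblasts cultured with fluconazole at 8 µg/mL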
[3] = target: T1, Heat shock factor protein 1 (Mus musculus, UniProt P38532); experiment: HSF1 potentiators in luciferase reporter cells, confirmation, cell-based, NIH3T3, luminescence, dose retest (AID 435004); type: functional;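 note: stress induced by proteasome inhibitor MG132 added 30 min after compound; luciferase reporter driven by HSF1 response element in NIH3T3 cells; actives raise luminescence as potentiators of the MG132 stress response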
T1 sequence (P38532 whole entry): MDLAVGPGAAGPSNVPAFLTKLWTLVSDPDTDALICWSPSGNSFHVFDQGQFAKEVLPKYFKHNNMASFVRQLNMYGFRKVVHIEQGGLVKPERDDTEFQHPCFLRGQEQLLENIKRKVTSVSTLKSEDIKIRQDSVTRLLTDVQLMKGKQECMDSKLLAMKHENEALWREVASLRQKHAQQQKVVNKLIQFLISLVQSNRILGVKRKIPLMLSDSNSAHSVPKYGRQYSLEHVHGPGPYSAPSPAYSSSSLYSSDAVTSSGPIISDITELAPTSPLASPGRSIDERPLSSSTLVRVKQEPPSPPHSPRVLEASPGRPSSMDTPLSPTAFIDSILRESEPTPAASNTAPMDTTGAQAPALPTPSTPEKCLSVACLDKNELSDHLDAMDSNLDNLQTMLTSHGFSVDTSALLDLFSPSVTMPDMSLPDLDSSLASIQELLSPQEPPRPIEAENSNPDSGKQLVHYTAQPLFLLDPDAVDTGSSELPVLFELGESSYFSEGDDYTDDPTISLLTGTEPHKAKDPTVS

[4] = cytotoxicity toward NIH3T3 fibroblasts, dose response, counter-screen, cell-based, ATP luminescence, mouse fibroblasts (AID 2010); type: functional;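 note: cells exposed to compound for about 90 hours before reading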
[5] = inhibitors of intracellular T. cruzi replication, confirmation, NIH3T3 host cells, beta-gal luminescence (AID 2044); type: functional, cell-based;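 note: intracellular parasites grown in NIH/3T3 mouse fibroblasts as host cells; luminescent beta-galactosidase reporter signal from transgenic T. cruzi replicating inside host cells; inhibitors lower the luminescence signal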
[6] = target: Glyceraldehyde-3-phosphate dehydrogenase (Homo sapiens, UniProt P04406)
Chain of Glyceraldehyde-3-phosphate dehydrogenase (P04406 whole entry): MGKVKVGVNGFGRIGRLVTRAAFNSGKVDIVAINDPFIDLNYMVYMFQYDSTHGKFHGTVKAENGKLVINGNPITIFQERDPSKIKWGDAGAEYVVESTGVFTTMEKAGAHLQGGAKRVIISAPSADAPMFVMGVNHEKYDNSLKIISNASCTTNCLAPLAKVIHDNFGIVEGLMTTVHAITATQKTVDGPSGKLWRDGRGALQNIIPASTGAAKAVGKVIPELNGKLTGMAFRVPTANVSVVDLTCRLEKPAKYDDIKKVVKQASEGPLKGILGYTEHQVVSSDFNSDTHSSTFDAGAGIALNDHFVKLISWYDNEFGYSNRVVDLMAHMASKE

[7] = target: T2, Streptokinase A (Streptococcus pyogenes serotype M1, UniProt P10520); experiment: S. pyogenes streptokinase expression inhibitors, potency, dose response, plasminogen activation absorbance, OD405 (AID 1914); type: functional, Streptococcus pyogenes M1 GAS;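 note: secreted streptokinase activity via plasminogen activation per viability signal from cell pellet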
T2 sequence (P10520 whole entry): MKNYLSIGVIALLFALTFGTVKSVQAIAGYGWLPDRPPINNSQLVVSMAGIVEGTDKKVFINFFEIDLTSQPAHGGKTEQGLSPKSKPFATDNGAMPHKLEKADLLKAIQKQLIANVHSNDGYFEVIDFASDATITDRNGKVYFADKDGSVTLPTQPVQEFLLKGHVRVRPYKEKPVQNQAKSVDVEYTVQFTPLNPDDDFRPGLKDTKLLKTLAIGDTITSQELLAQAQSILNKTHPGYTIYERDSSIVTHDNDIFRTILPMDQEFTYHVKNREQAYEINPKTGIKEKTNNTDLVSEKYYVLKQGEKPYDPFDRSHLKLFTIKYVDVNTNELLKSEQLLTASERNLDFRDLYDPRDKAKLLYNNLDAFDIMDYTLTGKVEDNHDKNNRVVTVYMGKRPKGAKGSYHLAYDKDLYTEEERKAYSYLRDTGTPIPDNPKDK

[8] = system: Streptococcus; experiment: Group A Streptococcus viability loss, dose response, counter-screen for streptokinase expression inhibitor project, luminescence, BacTiterGlo (AID 1915); type: functional, organism-based;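 note: potency for reduction of bacterial viability or growth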
[9] = system: Streptococcus sp. 'group A'; experiment: growth inhibition of control SK(-) GAS strain, dose response, counter-screen for streptokinase expression inhibitor project, luminescence, kanamycin, BacTiterGlo, confirmation (AID 1900); type: functional, organism-based
[10] = inhibitors of firefly luciferase expression or activity, dose response, H4 neuroglioma cells, luminescence (AID 1990); type: functional, cell-based
[11] = inhibitors of SNCA 5'UTR-driven reporter translation, confirmation, H4 neuroglioma cells, luminescence (AID 1988); type: functional, cell-based
[12] = Luminescence Cell-Based Dose Response HTS to Identify Inhibitors of 5'UTR Stem-Loop Driven Prion Protein mRNA Translation in H4 Neuroglioblastoma Cells. [Related pubchem assays: 1827 (Project Summary), 1813 (Primary HTS)]; type: functional
[13] = target: Cytochrome P450 3A4 (Homo sapiens, UniProt P08684);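 note: CYP3A4 tested as one member of a cytochrome P450 panel screen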
Chain of Cytochrome P450 3A4 (P08684 whole entry): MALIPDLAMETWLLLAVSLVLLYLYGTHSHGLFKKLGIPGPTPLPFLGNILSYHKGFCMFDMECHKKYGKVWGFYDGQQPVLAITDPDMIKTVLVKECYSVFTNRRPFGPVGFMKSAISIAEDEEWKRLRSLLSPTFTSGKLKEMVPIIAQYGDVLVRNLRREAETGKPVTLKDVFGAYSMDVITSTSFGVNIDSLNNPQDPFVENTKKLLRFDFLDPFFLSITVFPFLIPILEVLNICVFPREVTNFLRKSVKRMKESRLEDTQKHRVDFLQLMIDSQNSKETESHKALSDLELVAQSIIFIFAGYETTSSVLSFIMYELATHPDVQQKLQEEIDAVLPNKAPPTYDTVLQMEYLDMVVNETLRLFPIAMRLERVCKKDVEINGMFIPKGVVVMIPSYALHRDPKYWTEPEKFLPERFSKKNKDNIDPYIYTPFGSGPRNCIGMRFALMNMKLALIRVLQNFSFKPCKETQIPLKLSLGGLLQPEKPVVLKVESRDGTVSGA

[14] = Shn3 3'UTR reporter inhibitors, dose response, cell-based, Clone20 osteoblasts, firefly luciferase, cherry-picked (AID 624132); type: functional;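 note: firefly luciferase luminescence from reporter carrying the Shn3 3'UTR in osteoblasts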
[15] = control 3'UTR Renilla luciferase suppression, dose response, counter-screen for Shn3 inhibitor project, cell-based, Clone20-Shn3RL, cherry-picked (AID 624133); type: functional
[16] = system: SN12K1; experiment: cells; type: functional; conditions: Homo sapiens
[17] = system: P388; experiment: cells; type: functional; conditions: Mus musculus
[18] = system: P388/ADR; experiment: cells; type: functional; conditions: Mus musculus
[19] = target: Paired box protein Pax-8 (Homo sapiens, UniProt Q06710); experiment: inhibitors of PAX8-driven TPO luciferase reporter, dose response, RMG-I cells, cherry-pick (AID 687027); type: functional, cell-based;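 note: luciferase reporter driven by Pax8 target thyroperoxidase promoter measured by SteadyGlo luminescence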
Chain of Paired box protein Pax-8 (Q06710 whole entry): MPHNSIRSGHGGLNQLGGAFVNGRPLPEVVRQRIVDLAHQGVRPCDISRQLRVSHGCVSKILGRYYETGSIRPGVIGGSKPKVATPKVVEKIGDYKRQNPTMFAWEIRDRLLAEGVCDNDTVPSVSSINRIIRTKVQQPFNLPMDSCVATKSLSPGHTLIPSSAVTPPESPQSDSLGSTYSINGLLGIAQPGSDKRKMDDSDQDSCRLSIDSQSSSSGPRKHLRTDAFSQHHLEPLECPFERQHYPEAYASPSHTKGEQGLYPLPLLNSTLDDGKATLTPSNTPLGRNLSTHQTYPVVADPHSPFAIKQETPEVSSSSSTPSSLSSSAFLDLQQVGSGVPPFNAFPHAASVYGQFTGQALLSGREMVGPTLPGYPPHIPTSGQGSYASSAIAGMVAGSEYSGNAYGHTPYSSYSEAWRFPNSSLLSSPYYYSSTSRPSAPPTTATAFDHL

NC1=NC(=O)C(Cc2cccc(Cl)c2Cl)S1 (stereo unspecified)
EC50 [1]: > 38 µM (not active) | EC50 [2]: 21.6 µM (inconclusive)

C=CCN(C(=O)CCc1ccccc1OC)c1nc(-c2ccc(S(C)(=O)=O)cc2)cs1
EC50 [3]: > 260 µM (inactive) | EC50 [4]: 5.05 µM (active) | EC50 [5]: 1.93 µM (active)

O=C1CC(C(=O)Nc2ccc(O)c(C(=O)O)c2)C(c2ccccc2)O1 (stereo unspecified)
IC50 [6]: > 100 µM (not active)

CCCc1nnc(N=C(S)Nc2ccccc2)s1
EC50 [1]: 1.09 µM (active) | EC50 [2]: > 160 µM (inactive)

S=C(Nc1ccc(Cl)cc1)Nc1ccc2c(c1)OCCO2
EC50 [1]: > 38 µM (not active) | EC50 [2]: > 150 µM (inactive)

CN(Cc1ccccc1)C(=O)c1cc(-c2ccc(Br)cc2)on1
EC50 [3]: 110 µM (active)

O=C(CSc1ccc(Cl)cc1)Nc1nnc(-c2ccco2)o1
EC50 [1]: 3.02 µM (active) | EC50 [2]: > 160 µM (inconclusive)

CCC(C)c1ccc(C2C3=C(O)c4ccccc4C3=Nc3nc(N)nc(O)c32)cc1 (stereo unspecified)
EC50 [7]: > 50 µM (not active) | EC50 [8]: 8.57 µM (active) | EC50 [9]: 3.11 µM (active)

COc1cccc(-c2nnc(SCc3nc4ccccc4[nH]3)n2N)c1
EC50 [3]: > 260 µM (inactive)

O=C(/C=C/c1ccco1)Nc1nc(-c2ccccn2)cs1
EC50 [7]: > 150 µM (not active) | EC50 [4]: 11.6 µM (active) | EC50 [8]: > 150 µM (not active) | EC50 [9]: 18 µM (active) | EC50 [5]: 4.02 µM (active)

CC(=O)Nc1ncnc2c1c(-c1ccc(Cl)cc1)nn2C(C)(C)C
EC50 [1]: 1.15 µM (active) | EC50 [10]: 11.4 µM (active) | EC50 [2]: 36.2 µM (active) | EC50 [11]: 10.2 µM (active) | EC50 [4]: 2.66 µM (active) | EC50 [5]: 0.14 µM (active) | EC50 [12]: 13.3 µM (active)

Cc1cccc(Sc2nc(-c3ccccc3)ncc2C(=O)O)c1
EC50 [1]: 1.66 µM (active) | EC50 [2]: 104 µM (active)

COc1ccc(C(=O)N2CC3(CC(c4ccc(Cl)cc4)=NO3)C[C@H]2C(=O)NCC(N)=O)cc1 (stereo partly specified)
AC50 [13]: 31.6 µM (inconclusive)

O=C(CN1C(=O)NC(Cc2c[nH]c3ccccc23)C1=O)Nc1cccc(S(=O)(=O)N2CCOCC2)c1 (stereo unspecified)
EC50 [3]: > 260 µM (inactive)

O=C(O)c1ccc(-c2nc(-c3ccc(Cl)c(Cl)c3)cs2)cc1
EC50 [1]: 3.35 µM (active) | EC50 [2]: > 160 µM (inactive) | EC50 [8]: 6.62 µM (active) | EC50 [9]: 3.54 µM (active)

COc1cccc(N2C(=O)C(Cl)=C(N3CCOCC3)C2=O)c1
IC50 [6]: > 50 µM (inconclusive)

C[C@H]1CC(C)(C)C[C@@](OCCN2CCCCC2)(c2ccccc2)C1
AC50 [13]: 3.16 µM (inconclusive)

CN(C)c1ccc(CNc2ncnc3sccc23)cc1
EC50 [1]: 2.63 µM (active) | EC50 [2]: > 160 µM (inactive)

c1ccc(-c2csc3ncnc(N4CCc5ccccc5C4)c23)cc1
EC50 [7]: 4.83 µM (active) | EC50 [8]: 19.5 µM (active) | EC50 [9]: 5.31 µM (active)

COc1cccc(C(=O)COC(=O)C(C)N2C(=O)C3C4C=CC(C4)C3C2=O)c1 (stereo unspecified)
EC50 [3]: > 260 µM (inactive)

Cc1ccc(-n2c(O)cc(=O)nc2SCC(=O)Nc2ccc3c4c(cccc24)CC3)cc1
EC50 [7]: > 150 µM (not active) | EC50 [8]: > 150 µM (not active) | EC50 [9]: 28.4 µM (active)

FC(F)(F)c1cccc(NC(=S)N2CCCC2)c1
EC50 [7]: > 150 µM (not active) | EC50 [8]: > 150 µM (not active) | EC50 [9]: > 150 µM (not active)

O=c1[nH]n2c(C(F)(F)F)cc(C3CC3)nc2c1N=Nc1ccccc1
EC50 [1]: 1.05 µM (active) | EC50 [2]: > 150 µM (inactive)

O=c1c(-c2ccccc2)nc2cnc(Nc3ccccc3)nc2n1C[C@H]1CCCO1
AC50 [13]: 12.6 µM (inconclusive)

O=C(O)[C@@H]1[C@@H](C(=O)NCc2ccncc2)[C@@H]2C=C[C@@H]1O2
AC50 [13]: 3.98 µM (inconclusive)

Cc1ccc2c(O)nc(Nc3nc(C)cc(-c4ccccc4)n3)nc2c1
EC50 [7]: > 150 µM (not active) | EC50 [8]: 5.49 µM (active) | EC50 [9]: 7.26 µM (active)

CCn1nc(C)cc1C(=O)Sc1ccc(Cl)cc1Cl
EC50 [3]: 14.9 µM (active)

Cc1ccc(-c2nnc(-c3ccc(NC(=O)c4cccs4)cc3)o2)cc1
AC50 [13]: 20 µM (inconclusive)

N#Cc1ccccc1-c1cncnc1NCc1cccnc1
AC50 [13]: 0.2 µM (inconclusive)

COC(=O)c1cn(CCOc2ccc(C)cc2)c2ccccc12
EC50 [3]: > 260 µM (inactive)

CCOC(=O)N1CCN(CC(c2ccccc2)c2ccccc2)CC1
AC50 [14]: 14.1 µM (active) | AC50 [15]: 39.1 µM (active)

Cc1ccc(N2NC(=O)/C(=C/c3c(C)c(C#N)c4nc5ccccc5n4c3O)C2=O)cc1C
IC50 [6]: > 100 µM (not active)

COC(=O)N1CCC2(CCCN(Cc3ccccc3OC)C2)CC1
AC50 [13]: 6.31 µM (inconclusive)

CC(C)[C@H](NC(N)=O)C(=O)NNC(=O)COc1cccc(C(F)(F)F)c1
EC50 [3]: > 260 µM (inactive)

CCOC(=O)N1CCN(C(=O)c2cnc3n(c2=O)CCS3)CC1
EC50 [3]: > 260 µM (inactive)

COc1cccc2c1C(=O)c1c(O)c3c(c(O)c1C2=O)C[C@@](O)(C(=O)CO)C[C@@H]3OC1CC(N2CCOCC2)C(O)C(C)O1 (stereo partly specified)
GI50 [16]: 0.00366 µM (active) | GI50 [17]: 0.0025 µM (active) | GI50 [18]: 0.00136 µM (active)

CCCCOc1ccc(-c2nc(/C=N/c3nccs3)c(O)o2)cc1
EC50 [3]: > 260 µM (inactive)

CN(C)CCNC(=O)c1cccc2ccc(-c3ccc(O)cc3)nc12
GI50 [16]: 0.637 µM (active)

C=C1C(=O)O[C@H]2[C@H]1[C@@H](OC(=O)C=C(C)C)CC1=C[C@@H](C[C@@]3(C)O[C@@H]23)OC1=O
GI50 [16]: 6.46 µM (inactive) | GI50 [17]: 0.139 µM (active)

COc1ccc(CN(C)C[C@H]2Oc3ccc(NC(=O)Nc4ccc5c(c4)OCO5)cc3CC(=O)N([C@H](C)CO)C[C@H]2C)cc1
AC50 [19]: 62.3 µM (active)

C[C@@H]1CCCCO[C@H](CN(C)C(=O)c2ccccc2)[C@@H](C)CN([C@@H](C)CO)C(=O)c2cc(NC(=O)Nc3ccc(C(F)(F)F)cc3)ccc2O1
AC50 [19]: 3.72 µM (active)

C[C@H](CO)N1C[C@H](C)[C@H](CN(C)Cc2ccc3c(c2)OCO3)OCCCC[C@H](C)Oc2ccc(NS(=O)(=O)c3ccc(Cl)cc3)cc2C1=O
AC50 [19]: 9.86 µM (active)

CN1C[C@@H]2[C@H](c3ccccc31)[C@H](CO)N2Cc1ccccc1Cl
AC50 [19]: 50.5 µM (active)

C[C@@H]1[C@@H]2[C@@H](C=C3C4CCC5Cc6nc7c(nc6C[C@@]5(C)C4C[C@H](O)[C@]32CO)CC2CCC3C4=C[C@H]5O[C@@]6(OC(C)(CO)C[C@@H]6O)[C@H](C)[C@@]5(O)[C@]4(C)[C@@H](O)CC3[C@]2(C)C7)O[C@]12CCC(C)(C)O2 (stereo partly specified)
GI50 [16]: 0.000365 µM (active) | GI50 [17]: 0.000365 µM (active) | GI50 [18]: 0.0918 µM (active)

COc1ccc(N[C@@H]2c3cc4c(cc3C(c3cc(OC)c(O)c(OC)c3)[C@H]3C(=O)OCC32)OCO4)cc1OC (stereo partly specified)
GI50 [17]: < 0.01 µM (active) | GI50 [18]: 0.269 µM (active)

COc1ccc(/N=C2/S/C(=C\c3ccc(C)s3)C(=O)N2CC(C)C)cc1
AC50 [13]: 5.01 µM (inconclusive)

COc1ccc(C)cc1S(=O)(=O)Nc1cnc2ccccc2c1
IC50 [6]: > 100 µM (not active)
